Experiments:
[1] = target: wild-type human cardiac sodium channel, hNav1.5 (Homo sapiens, UniProt Q14524); test: Late INa screening assay (QPatch whole cell patch clamp, Tefluthrin-induced late current); format: cell-based; conditions: 1 uM; HEK293 hNav1.5; percent block of late INa
Summary of the method: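 HEK293 cells stably expressing hNav1.5 without beta subunits were whole-cell patch clamped at 23-25 °C, stepping from −120 to −20 mV for 250 ms at 0.1 Hz. Late current (240–265 ms) was induced with 10 μM Tefluthrin, and compounds were added typically at 0.3 or 1 μM. Percent block was taken against 0 Na baseline with rundown correction.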

hNav1.1 (SCN1A) = hNav1.1 (SCN1A) (Homo sapiens, UniProt P35498); test: Use-dependent inhibition of the CNS Nav1.1 sodium channel; format: cell-based; conditions: use-dependent block, 25 Hz, pulse 20, read-out: Nav1.1 UDB 25 Hz 10 uM
Summary of the method: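 HEK-293 cells stably expressing WT hNav1.1, automated whole-cell patch clamp at 23-25 °C with CsF-based internal and NaCl external solutions, pH 7.35. Compound applied twice, 200 s equilibration; block measured at pulse 20 of a 25 Hz train (0 mV, 20 ms) from −120 mV, as mean % inhibition versus compound-free.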

wild-type human cardiac sodium channel, hNav1.5, sequence (Q14524 whole entry): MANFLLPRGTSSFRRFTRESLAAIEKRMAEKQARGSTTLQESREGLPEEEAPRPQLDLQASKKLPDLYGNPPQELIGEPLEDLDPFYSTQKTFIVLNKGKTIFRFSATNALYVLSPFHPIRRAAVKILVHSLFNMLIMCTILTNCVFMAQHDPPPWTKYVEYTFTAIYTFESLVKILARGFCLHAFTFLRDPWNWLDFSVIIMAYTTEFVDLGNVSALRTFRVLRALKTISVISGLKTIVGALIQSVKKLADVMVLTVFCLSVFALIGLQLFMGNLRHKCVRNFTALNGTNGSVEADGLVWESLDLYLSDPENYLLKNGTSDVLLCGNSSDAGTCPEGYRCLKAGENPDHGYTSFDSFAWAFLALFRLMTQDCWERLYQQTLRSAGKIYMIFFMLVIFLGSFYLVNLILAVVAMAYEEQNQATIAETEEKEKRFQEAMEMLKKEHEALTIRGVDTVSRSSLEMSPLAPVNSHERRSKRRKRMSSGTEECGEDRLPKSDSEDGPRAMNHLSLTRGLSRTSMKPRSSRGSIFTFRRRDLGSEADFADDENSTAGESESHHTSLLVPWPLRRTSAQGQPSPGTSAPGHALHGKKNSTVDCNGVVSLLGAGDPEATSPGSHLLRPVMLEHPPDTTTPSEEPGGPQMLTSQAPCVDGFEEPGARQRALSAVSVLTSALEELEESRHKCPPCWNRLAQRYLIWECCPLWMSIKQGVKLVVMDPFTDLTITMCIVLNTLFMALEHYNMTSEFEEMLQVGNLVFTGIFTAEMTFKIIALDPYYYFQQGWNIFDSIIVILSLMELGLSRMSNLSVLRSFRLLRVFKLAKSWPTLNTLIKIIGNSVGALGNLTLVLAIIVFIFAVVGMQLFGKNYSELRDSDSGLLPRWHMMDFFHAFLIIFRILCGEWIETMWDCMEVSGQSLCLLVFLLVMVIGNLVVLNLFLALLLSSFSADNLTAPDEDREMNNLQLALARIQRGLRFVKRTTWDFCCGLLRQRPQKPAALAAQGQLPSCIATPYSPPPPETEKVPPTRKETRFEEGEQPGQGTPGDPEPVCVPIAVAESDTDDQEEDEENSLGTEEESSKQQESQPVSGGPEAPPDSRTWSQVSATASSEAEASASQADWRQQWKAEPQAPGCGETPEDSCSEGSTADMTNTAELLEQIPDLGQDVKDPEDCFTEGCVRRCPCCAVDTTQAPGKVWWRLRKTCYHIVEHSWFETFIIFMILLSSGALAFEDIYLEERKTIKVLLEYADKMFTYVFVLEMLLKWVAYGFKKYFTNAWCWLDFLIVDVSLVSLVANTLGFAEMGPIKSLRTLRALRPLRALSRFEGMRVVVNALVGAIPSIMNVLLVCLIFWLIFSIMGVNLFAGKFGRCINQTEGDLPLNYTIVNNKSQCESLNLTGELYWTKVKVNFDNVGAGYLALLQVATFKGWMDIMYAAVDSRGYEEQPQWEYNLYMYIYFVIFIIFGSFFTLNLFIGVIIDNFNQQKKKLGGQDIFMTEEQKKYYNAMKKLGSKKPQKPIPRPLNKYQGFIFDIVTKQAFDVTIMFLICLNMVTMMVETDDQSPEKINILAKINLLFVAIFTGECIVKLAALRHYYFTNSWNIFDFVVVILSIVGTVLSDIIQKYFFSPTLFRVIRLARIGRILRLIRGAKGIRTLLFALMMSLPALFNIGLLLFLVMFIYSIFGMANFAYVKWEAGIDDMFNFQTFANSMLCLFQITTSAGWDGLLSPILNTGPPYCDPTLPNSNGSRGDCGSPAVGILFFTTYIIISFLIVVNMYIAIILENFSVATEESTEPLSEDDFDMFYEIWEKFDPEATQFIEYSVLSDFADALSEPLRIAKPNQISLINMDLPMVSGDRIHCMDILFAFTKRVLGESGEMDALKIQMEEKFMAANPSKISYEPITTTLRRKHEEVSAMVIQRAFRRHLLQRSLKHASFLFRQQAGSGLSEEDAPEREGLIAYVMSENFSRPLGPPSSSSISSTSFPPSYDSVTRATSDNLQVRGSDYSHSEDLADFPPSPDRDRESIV

Structure (SMILES) | inhibition at 1 µM [1] [%] | inhibition at 10 µM (hNav1.1 (SCN1A)) [%]
Fc1cc(-c2ccc(OC(F)(F)F)cc2)cc2c(OCc3ncccn3)noc12 [Example 17, 7-fluoro-3-(pyrimidin-2-ylmethoxy)-5-(4-(trifluoromethoxy)phenyl)benzo[d]isoxazole] | 45.9 | 5.9
Cc1cc(-c2cc(C)c3onc(OCc4ncccn4)c3c2)ccc1OC(F)(F)F [Example 18, 7-methyl-5-(3-methyl-4-(trifluoromethoxy)phenyl)-3-(pyrimidin-2-ylmethoxy)benzo[d]isoxazole] | 38.2 | < 5
FC(F)(F)COc1ccc(-c2ccc3onc(OCc4ncccn4)c3c2)cn1 [Example 21, 3-(pyrimidin-2-ylmethoxy)-5-(6-(2,2,2-trifluoroethoxy)pyridin-3-yl)benzo[d]isoxazole] | 48.8 | < 5
COc1cc(-c2ccc(OC(F)(F)F)c(C)c2)cc2c(OCc3ncccn3)noc12 [Example 23, 7-methoxy-5-(3-methyl-4-(trifluoromethoxy)phenyl)-3-(pyrimidin-2-ylmethoxy)benzo[d]isoxazole] | 45.3 | < 5
COc1cc(-c2ccc(C(F)(F)F)cc2F)cc2c(OCc3ncccn3)noc12 [Example 24, 5-(2-fluoro-4-(trifluoromethyl)phenyl)-7-methoxy-3-(pyrimidin-2-ylmethoxy)benzo[d]isoxazole] | 36 | < 5
COc1cc(-c2ccc(OC(F)(F)F)cc2C)cc2c(OCc3ncccn3)noc12 [Example 25, 7-methoxy-5-(2-methyl-4-(trifluoromethoxy)phenyl)-3-(pyrimidin-2-ylmethoxy)benzo[d]isoxazole] | 41.3 | < 5
Cc1cc2onc(OCc3ncccn3)c2cc1-c1ccc(OC(F)(F)F)cc1 [Example 26, 6-methyl-3-(pyrimidin-2-ylmethoxy)-5-(4-(trifluoromethoxy)phenyl)benzo[d]isoxazole] | 49.6 | 58.6
Cc1cc(-c2cc3c(OCc4ncccn4)noc3cc2C)ccc1OC(F)(F)F [Example 27, 6-methyl-5-(3-methyl-4-(trifluoromethoxy)phenyl)-3-(pyrimidin-2-ylmethoxy)benzo[d]isoxazole] | 35.1 | < 5
Cc1cc(OC(F)(F)F)ccc1-c1cc2c(OCc3ncccn3)noc2cc1C [Example 29, 6-methyl-5-(2-methyl-4-(trifluoromethoxy)phenyl)-3-(pyrimidin-2-ylmethoxy)benzo[d]isoxazole] | 46.4 | < 5
FC1(F)Oc2ccc(-c3ccc4onc(OCc5ncccn5)c4c3)cc2O1 [Example 30, 5-(2,2-difluorobenzo[d][1,3]dioxol-5-yl)-3-(pyrimidin-2-ylmethoxy)benzo[d]isoxazole] | 42.5 | < 5
Fc1cc2onc(OCc3ncccn3)c2cc1-c1ccc(OC(F)(F)F)cc1 [Example 31, 6-fluoro-3-(pyrimidin-2-ylmethoxy)-5-(4-(trifluoromethoxy)phenyl)benzo[d]isoxazole] | 43.9 | < 5
Fc1cc(C(F)(F)F)ccc1-c1cc2c(OCc3ncccn3)noc2cc1F [Example 33, 6-fluoro-5-(2-fluoro-4-(trifluoromethyl)phenyl)-3-(pyrimidin-2-ylmethoxy)benzo[d]isoxazole] | 35.5 | < 5
Fc1cc2onc(OCc3ncccn3)c2cc1-c1ccc2c(c1)OC(F)(F)O2 [Example 35, 5-(2,2-difluorobenzo[d][1,3]dioxol-5-yl)-6-fluoro-3-(pyrimidin-2-ylmethoxy)benzo[d]isoxazole] | 33.6 | < 5
Cn1cc(COc2noc3ccc(-c4ccc(OC(F)(F)F)cc4)cc23)nn1 [Example 44] | 48.2 | 21.1
FC(F)(F)Oc1ccc(-c2ccc3onc(OCc4cn[nH]c4)c3c2)cc1 [Example 45, 3-((1H-pyrazol-4-yl)methoxy)-5-(4-(trifluoromethoxy)phenyl)benzo[d]isoxazole] | 43.6 | 63.8
CC(C)n1ccnc1COc1noc2ccc(-c3ccc(OC(F)(F)F)cc3)cc12 [Example 48, 3-((1-isopropyl-1H-imidazol-2-yl)methoxy)-5-(4-(trifluoromethoxy)phenyl)benzo[d]isoxazole] | 51.2 | 52.8
CCn1cncc1COc1noc2ccc(-c3ccc(OC(F)(F)F)cc3)cc12 [Example 49, 3-((1-ethyl-1H-imidazol-5-yl)methoxy)-5-(4-(trifluoromethoxy)phenyl)benzo[d]isoxazole] | 39.6 | 56.4

Structure (SMILES) | inhibition at 1 µM [1] [%] | inhibition at 10 µM (hNav1.1 (SCN1A)) [%]
Cn1cncc1COc1noc2ccc(-c3ccc(OC(F)(F)F)cc3)cc12 [Example 50, 3-((1-methyl-1H-imidazol-5-yl)methoxy)-5-(4-(trifluoromethoxy)phenyl)benzo[d]isoxazole] | 32.5 | 49.2
FC(F)(F)Oc1ccc(-c2ccc3onc(OCc4cn5ccccc5n4)c3c2)cc1 [Example 51, 3-(imidazo[1,2-a]pyridin-2-ylmethoxy)-5-(4-(trifluoromethoxy)phenyl)benzo[d]isoxazole] | 38.8 | 30
O=C1CC[C@H](COc2noc3ccc(-c4ccc(OC(F)(F)F)cc4)cc23)N1 [Example 61, (R)-5-(((5-(4-(trifluoromethoxy)phenyl)benzo[d]isoxazol-3-yl)oxy)methyl)pyrrolidin-2-one] | 38.2 | 28.7
FC(F)(F)Oc1ccc(-c2ccc3onc(OCCn4cnnc4)c3c2)cc1 [Example 63, 3-(2-(4H-1,2,4-triazol-4-yl)ethoxy)-5-(4-(trifluoromethoxy)phenyl)benzo[d]isoxazole] | 44.1 | 77.6
FC(F)(F)Oc1ccc(-c2ccc3onc(OCc4nccn4-c4ccccc4)c3c2)cc1 [Example 64, 3-((1-phenyl-1H-imidazol-2-yl)methoxy)-5-(4-(trifluoromethoxy)phenyl)benzo[d]isoxazole] | 30.7 | 33.2
Cc1nc(C)n(CCOc2noc3ccc(-c4ccc(OC(F)(F)F)cc4)cc23)n1 [Example 76, 3-(2-(3,5-dimethyl-1H-1,2,4-triazol-1-yl)ethoxy)-5-(4-(trifluoromethoxy)phenyl)benzo[d]isoxazole] | 55.2 | 27.2
CC(COc1noc2ccc(-c3ccc(OC(F)(F)F)cc3)cc12)n1cncn1 (centres unmarked) [Example 77, 3-(2-(1H-1,2,4-triazol-1-yl)propoxy)-5-(4-(trifluoromethoxy)phenyl)benzo[d]isoxazole] | 49.2 | 49.2
FC(F)(F)Oc1ccc(-c2ccc3onc(OCCN4CCOCC4)c3c2)cc1 [Example 78, 3-(2-morpholinoethoxy)-5-(4-(trifluoromethoxy)phenyl)benzo[d]isoxazole] | 47.1 | 39.9
Cc1nc(C)n(C(C)COc2noc3ccc(-c4ccc(OC(F)(F)F)cc4)cc23)n1 (centres unmarked) [Example 79, 3-(2-(3,5-dimethyl-1H-1,2,4-triazol-1-yl)propoxy)-5-(4-(trifluoromethoxy)phenyl)benzo[d]isoxazole] | 46.1 | 36.8
O=C1CCCN1CCOc1noc2c(F)cc(-c3ccc(OC(F)(F)F)cc3)cc12 [Example 80, 1-(2-((7-fluoro-5-(4-(trifluoromethoxy)phenyl)benzo[d]isoxazol-3-yl)oxy)ethyl)pyrrolidin-2-one] | 35.6 | 19.8
COc1ccnc(COc2noc3ccc(-c4ccc(OC(F)(F)F)cc4)cc23)c1 [Example 81, 3-((4-methoxypyridin-2-yl)methoxy)-5-(4-(trifluoromethoxy)phenyl)benzo[d]isoxazole] | 33.7 | < 5
Cc1cc(-c2ccc(OC(F)(F)F)cc2)cc2c(OCCn3cncn3)noc12 [Example 89, 3-(2-(1H-1,2,4-triazol-1-yl)ethoxy)-7-methyl-5-(4-(trifluoromethoxy)phenyl)benzo[d]isoxazole] | 33.2 | 16.1
Cc1cc(-c2ccc(OC(F)(F)F)cc2)cc2c(OCc3ncco3)noc12 [Example 91, 7-methyl-3-(oxazol-2-ylmethoxy)-5-(4-(trifluoromethoxy)phenyl)benzo[d]isoxazole] | 53 | 31.1
CC1(COc2noc3ccc(-c4ccc(OC(F)(F)F)cc4)cc23)COC1 [Example 92, 3-((3-methyloxetan-3-yl)methoxy)-5-(4-(trifluoromethoxy)phenyl)benzo[d]isoxazole] | 36.3 | < 5
Cc1cccnc1COc1noc2ccc(-c3ccc(OC(F)(F)F)cc3)cc12 [Example 93, 3-((3-methylpyridin-2-yl)methoxy)-5-(4-(trifluoromethoxy)phenyl)benzo[d]isoxazole] | 45.1 | < 5
Cc1cccc(COc2noc3ccc(-c4ccc(OC(F)(F)F)cc4)cc23)n1 [Example 95, 3-((6-methylpyridin-2-yl)methoxy)-5-(4-(trifluoromethoxy)phenyl)benzo[d]isoxazole] | 51.7 | < 5
OCC1(COc2noc3ccc(-c4ccc(OC(F)(F)F)cc4)cc23)COC1 [Example 97, (3-(((5-(4-(trifluoromethoxy)phenyl)benzo[d]isoxazol-3-yl)oxy)methyl)oxetan-3-yl)methanol] | 39 | 46.3

Reference: patent publication US9416115B2, “Fused heterocyclic compounds as ion channel modulators” (Gilead Sciences, Inc., priority 2013, dated 2016)
